Data reported in ChEMBL document CHEMBL1157502, “Carbaporphyrin ketals as potential agents for a new photodynamic therapy treatment of leishmaniasis” (Bioorg Med Chem, 2008).
Calls of active or inactive are those of the source. No cut-off for these calls is given here.

How the values were obtained:
Type in all cases: functional, organism-based
Leishmania tarentolae [1] = assay: Growth inhibition of Leishmania tarentolae axenic promastigotes after 2 days relative to ethanol
Leishmania tarentolae [2] = assay: Growth inhibition of Leishmania tarentolae axenic promastigotes upto 40 uM
Leishmania tarentolae [3] = assay: Growth inhibition of Leishmania tarentolae promastigotes assessed as mitochondrial superoxide production at 5 to 10 uM after 3 hrs by confocal fluorescence microscopy
Leishmania tarentolae [4] = assay: Growth inhibition of light-illuminated Leishmania tarentolae promastigotes assessed as enhancement of mitochondrial superoxide production at 5 to 10 uM after 3 hrs by confocal fluorescence microscopy
Leishmania tarentolae [5] = assay: Induction of mitochondrial singlet oxygen production in Leishmania tarentolae promastigotes at 2 uM by confocal fluorescence microscopy

In the case of `CCC1=C(CC)/C2=C/c3[nH]c(c(C)c3CC)/C=C3/c4ccccc4/C(=C/C4=NC(=C\C1=N2)/C(CC)=C4C)C3(OC)OC`, the Activity (Leishmania tarentolae [1]) was “Dose-dependent effect”, the Activity (Leishmania tarentolae [2]) was “inactive” and the Activity (Leishmania tarentolae [3]) was “Active”. The Activity (Leishmania tarentolae [4]) was “Active” and the Activity (Leishmania tarentolae [5]) was “Active”.
For `CCOC1(OCC)/C2=C\C3=NC(=C\C4=NC(=C\c5[nH]c(c(C)c5CC)/C=C\1c1ccccc12)/C(CC)=C4CC)/C(CC)=C3C`, the Activity (Leishmania tarentolae [1]) was “Dose-dependent effect”, the Activity (Leishmania tarentolae [2]) was “inactive” and the Activity (Leishmania tarentolae [3]) was “Active”. The Activity (Leishmania tarentolae [4]) was “Active”.
